Experimental data reported in PubChem BioAssay AID306 (DTP/NCI, 2004).
Where “and” joins values, the source holds several entries; their conditions need not be identical. Equal values may be shown once. Toxic doses and inconclusive results are not listed.

Tested on: BDF1 mice, L1210 Methyl-GAG-resistant leukemia, survival T/C
Experiment: NCI In Vivo Anticancer Drug Screen. Data for tumor model L1210 Leukemia resistant to Methyl-GAG; NSC 32946 (subcutaneous) in B6D2F1 (BDF1) mice
Conditions: endpoint: mean survival time, higher = longer survival
Protocol: The antitumor activity of compounds was measured in mice bearing transplantable tumors. Survival or tumor size were measured and the results are expressed as the measurement made in the treated group (T) divided by the measurement made in the vehicle treated control group (C). The tumor model used in this assay is L1210 Leukemia resistant to Methyl-GAG; NSC 32946 (subcutaneous) in B6D2F1 (BDF1) mice

[1] = dose: 8.0 mg/kg/injection, schedule: Q01DX Z (ip), vehicle: carboxymethylcellulose (CMC)
[2] = dose: 12.5 mg/kg/injection, schedule: Q01DX Z (ip), vehicle: carboxymethylcellulose (CMC)
[3] = dose: 25.0 mg/kg/injection, schedule: Q01DX Z (ip), vehicle: carboxymethylcellulose (CMC)
[4] = dose: 50.0 mg/kg/injection, schedule: Q01DX Z (ip), vehicle: carboxymethylcellulose (CMC)
[5] = dose: 100.0 mg/kg/injection, schedule: Q01DX Z (ip), vehicle: carboxymethylcellulose (CMC)
[6] = dose: 6.25 mg/kg/injection, schedule: Q01DX Z (ip), vehicle: carboxymethylcellulose (CMC)
[7] = dose: 200.0 mg/kg/injection, schedule: Q01DX Z (ip), vehicle: carboxymethylcellulose (CMC)
[8] = dose: 1.6 mg/kg/injection, schedule: Q01DX Z (ip), vehicle: carboxymethylcellulose (CMC)
[9] = dose: 3.1 mg/kg/injection, schedule: Q01DX Z (ip), vehicle: carboxymethylcellulose (CMC)
[10] = dose: 31.0 mg/kg/injection, schedule: Q01DX Z (ip), vehicle: carboxymethylcellulose (CMC)
[11] = dose: 62.5 mg/kg/injection, schedule: Q01DX Z (ip), vehicle: carboxymethylcellulose (CMC)
[12] = dose: 125.0 mg/kg/injection, schedule: Q01DX Z (ip), vehicle: carboxymethylcellulose (CMC)
[13] = dose: 500.0 mg/kg/injection, schedule: Q01DX Z (ip), vehicle: carboxymethylcellulose (CMC)

Cn1cnc([N+](=O)[O-])c1Sc1nc(N)nc2nc[nH]c12
T/C (dose: 1.0 mg/kg/injection, schedule: Q01DX Z (ip), vehicle: carboxymethylcellulose (CMC)): 98 % of control | T/C (dose: 2.0 mg/kg/injection, schedule: Q01DX Z (ip), vehicle: carboxymethylcellulose (CMC)): 106 % of control | T/C (dose: 4.0 mg/kg/injection, schedule: Q01DX Z (ip), vehicle: carboxymethylcellulose (CMC)): 162 % of control | T/C [1]: 88 % of control

Clc1ccc(C(c2ccccc2Cl)C(Cl)Cl)cc1 (stereo not drawn)
T/C (dose: 12.5 mg/kg/injection, schedule: Q01DX Z (sc), vehicle: steriod suspending solution): 105 % of control | T/C (dose: 25.0 mg/kg/injection, schedule: Q01DX Z (sc), vehicle: steriod suspending solution): 102 % of control | T/C (dose: 50.0 mg/kg/injection, schedule: Q01DX Z (sc), vehicle: steriod suspending solution): 98 % of control | T/C (dose: 100.0 mg/kg/injection, schedule: Q01DX Z (sc), vehicle: steriod suspending solution): 100 % of control | T/C (dose: 200.0 mg/kg/injection, schedule: Q01DX Z (sc), vehicle: steriod suspending solution): 105 % of control | T/C (dose: 400.0 mg/kg/injection, schedule: Q01DX Z (sc), vehicle: steriod suspending solution): 101 % of control | T/C (dose: 800.0 mg/kg/injection, schedule: Q01DX Z (sc), vehicle: steriod suspending solution): 109 % of control

Cn1cnc([N+](=O)[O-])c1Sc1ncnc2nc[nH]c12
T/C [2]: 105 % of control | T/C [3]: 103 % of control | T/C [4]: 124 % of control | T/C [5]: 88 % of control

N#CCSc1ncnc2nc[nH]c12
T/C [2]: 101 % of control | T/C [3]: 110 % of control | T/C [4]: 123 % of control

CN(C)c1ccc(/C=C\c2ccnc3ccccc23)cc1
T/C (dose: 0.4 mg/kg/injection, schedule: Q01DX Z (ip), vehicle: water): 97 % of control and 107 % of control | T/C (dose: 0.8 mg/kg/injection, schedule: Q01DX Z (ip), vehicle: water): 89 % of control and 105 % of control | T/C (dose: 1.6 mg/kg/injection, schedule: Q01DX Z (ip), vehicle: water): 104 % of control | T/C (dose: 3.1 mg/kg/injection, schedule: Q01DX Z (ip), vehicle: water): 101 % of control | T/C (dose: 6.25 mg/kg/injection, schedule: Q01DX Z (ip), vehicle: water): 90 % of control | T/C (dose: 12.5 mg/kg/injection, schedule: Q01DX Z (ip), vehicle: water): 95 % of control | T/C (dose: 25.0 mg/kg/injection, schedule: Q01DX Z (ip), vehicle: water): 104 % of control | T/C (dose: 50.0 mg/kg/injection, schedule: Q01DX Z (ip), vehicle: water): 97 % of control and 107 % of control

CC(=O)O[C@]1(C(C)=O)CC[C@H]2[C@@H]3C[C@H](C)C4=CC(=O)C=C[C@]4(C)[C@@]3(F)[C@@H](O)C[C@@]21C
T/C (dose: 10.0 mg/kg/injection, schedule: Q01DX Z (sc), vehicle: steriod suspending solution): 102 % of control | T/C (dose: 20.0 mg/kg/injection, schedule: Q01DX Z (sc), vehicle: steriod suspending solution): 105 % of control | T/C (dose: 40.0 mg/kg/injection, schedule: Q01DX Z (sc), vehicle: steriod suspending solution): 121 % of control | T/C (dose: 80.0 mg/kg/injection, schedule: Q01DX Z (sc), vehicle: steriod suspending solution): 114 % of control | T/C (dose: 160.0 mg/kg/injection, schedule: Q01DX Z (sc), vehicle: steriod suspending solution): 121 % of control | T/C (dose: 320.0 mg/kg/injection, schedule: Q01DX Z (sc), vehicle: steriod suspending solution): 115 % of control

CCCSc1ncnc2nc[nH]c12
T/C (dose: 6.3 mg/kg/injection, schedule: Q01DX Z (ip), vehicle: carboxymethylcellulose (CMC)): 107 % of control | T/C [2]: 110 % of control | T/C [3]: 110 % of control and 118 % of control | T/C [4]: 117 % of control and 123 % of control | T/C [5]: 110 % of control

O=C(O)CCCc1ccc(N(CCCl)CCCl)cc1
T/C [6]: 91 % of control | T/C [2]: 98 % of control | T/C [3]: 104 % of control

CSc1ncnc2nc[nH]c12
T/C [2]: 106 % of control | T/C [3]: 111 % of control | T/C [4]: 106 % of control | T/C [5]: 115 % of control | T/C [7]: 97 % of control

CN(C)CC(=O)c1ccc(O)c(O)c1
T/C (dose: 31.25 mg/kg/injection, schedule: Q01DX Z (ip), vehicle: saline): 98 % of control | T/C (dose: 62.5 mg/kg/injection, schedule: Q01DX Z (ip), vehicle: saline): 96 % of control | T/C (dose: 125.0 mg/kg/injection, schedule: Q01DX Z (ip), vehicle: saline): 99 % of control | T/C (dose: 250.0 mg/kg/injection, schedule: Q01DX Z (ip), vehicle: saline): 99 % of control and 100 % of control | T/C (dose: 500.0 mg/kg/injection, schedule: Q01DX Z (ip), vehicle: saline): 97 % of control and 106 % of control

CN(C)c1ccc(Nc2c3ccccc3nc3ccccc23)cc1
T/C [8]: 105 % of control | T/C [9]: 99 % of control | T/C [6]: 100 % of control | T/C [2]: 103 % of control | T/C [3]: 115 % of control | T/C [7]: 91 % of control

Cc1cc(N(CCCl)CCCl)ccc1N=Nc1ccccc1C(=O)O
T/C (dose: 15.0 mg/kg/injection, schedule: Q01DX Z (ip), vehicle: carboxymethylcellulose (CMC)): 96 % of control | T/C (dose: 30.0 mg/kg/injection, schedule: Q01DX Z (ip), vehicle: carboxymethylcellulose (CMC)): 99 % of control | T/C (dose: 60.0 mg/kg/injection, schedule: Q01DX Z (ip), vehicle: carboxymethylcellulose (CMC)): 96 % of control

c1ccc(CNc2ncnc3[nH]ncc23)cc1
T/C (dose: 0.97 mg/kg/injection, schedule: Q01DX Z (ip), vehicle: carboxymethylcellulose (CMC)): 107 % of control | T/C (dose: 1.95 mg/kg/injection, schedule: Q01DX Z (ip), vehicle: carboxymethylcellulose (CMC)): 102 % of control | T/C (dose: 3.9 mg/kg/injection, schedule: Q01DX Z (ip), vehicle: carboxymethylcellulose (CMC)): 108 % of control and 121 % of control | T/C (dose: 7.8 mg/kg/injection, schedule: Q01DX Z (ip), vehicle: carboxymethylcellulose (CMC)): 100 % of control and 103 % of control | T/C (dose: 15.5 mg/kg/injection, schedule: Q01DX Z (ip), vehicle: carboxymethylcellulose (CMC)): 107 % of control | T/C [10]: 110 % of control

CCN(CC)CCNc1ccc(C)c2sc3ccccc3c(=O)c12
T/C (dose: 1.56 mg/kg/injection, schedule: Q01DX Z (ip), vehicle: methylcellulose (MC)): 97 % of control | T/C (dose: 6.25 mg/kg/injection, schedule: Q01DX Z (ip), vehicle: methylcellulose (MC)): 102 % of control | T/C (dose: 12.5 mg/kg/injection, schedule: Q01DX Z (ip), vehicle: methylcellulose (MC)): 104 % of control | T/C (dose: 25.0 mg/kg/injection, schedule: Q01DX Z (ip), vehicle: methylcellulose (MC)): 103 % of control and 113 % of control | T/C (dose: 50.0 mg/kg/injection, schedule: Q01DX Z (ip), vehicle: methylcellulose (MC)): 119 % of control | T/C (dose: 100.0 mg/kg/injection, schedule: Q01DX Z (ip), vehicle: methylcellulose (MC)): 151 % of control

OCC1OC(n2cnc3c(Cl)ncnc32)C(O)C1O (stereo not drawn)
T/C [11]: 96 % of control | T/C [12]: 94 % of control | T/C (dose: 250.0 mg/kg/injection, schedule: Q01DX Z (ip), vehicle: carboxymethylcellulose (CMC)): 99 % of control | T/C [13]: 88 % of control and 102 % of control | T/C (dose: 1000.0 mg/kg/injection, schedule: Q01DX Z (ip), vehicle: carboxymethylcellulose (CMC)): 91 % of control

CSc1ncnc2c1ncn2C1OC(CO)C(O)C1O (stereo not drawn)
T/C [6]: 102 % of control | T/C [2]: 107 % of control | T/C [4]: 97 % of control

Cn1c(N)nc2nc[nH]c2c1=S
T/C [8]: 98 % of control | T/C [9]: 100 % of control and 104 % of control | T/C [6]: 97 % of control and 102 % of control | T/C [2]: 93 % of control and 98 % of control and 102 % of control | T/C [3]: 102 % of control | T/C [4]: 100 % of control and 111 % of control | T/C [5]: 101 % of control | T/C [7]: 97 % of control

CCn1cnc2c(=S)nc[nH]c21
T/C [1]: 113 % of control | T/C (dose: 16.0 mg/kg/injection, schedule: Q01DX Z (ip), vehicle: carboxymethylcellulose (CMC)): 106 % of control | T/C [10]: 120 % of control

O=c1[nH]c(=O)n(C2CC(O)C(CO)O2)cc1I (stereo not drawn)
T/C [11]: 118 % of control | T/C [12]: 112 % of control | T/C [13]: 117 % of control
